Legend:
[1] = system: A549 tumorspheroids; experiment: 3D tumorspheroid growth (CellTiter-Glo 3D); type: cell-based
Description: (§1) A549 and NCI-H460 cell lines were placed in 96-well ultra-low attachment (ULA) plates at 7,000 and 1500 cells/well, and centrifuged at 1000 rpm for 10 minutes. Then, they were cultured in Roswell Park Memorial Institute (RPMI) 1640 medium mixed with 0.5% Matrigel, 10% Fetal Bovine Serum (FBS), and 1× penicillin-streptomycin for 2 days. They were treated with IHT, and the degree of cell growth was measured with CellTiter-Glo 3D (Promega, Madison, WI, USA) reagent after 72 hours, and 2D cultured cells were exposed to IHT at the indicated concentration for 48 hours, and then the cell growth was measured with CellTiter-Glo reagent. The average effective dose ED50 of IHT was determined by analyzing the dose-response curve with GraphPad Prism, and the results are shown in FIG. 2. The scale bar was 100 μm, and all data were expressed as mean±standard deviation.
(§2) After IHT was treated onto the 3D tumorspheroid of NCI-H460, or siNR4A1 and IHT were treated in combination on the 3D tumorspheroid of A549, the growth inhibition and cell death induction of tumorspheroids were observed. Negative control (siNC) or siNR4AT-transfected A549 and non-transfected NCI-H460 tumorspheroids were treated with IHT at each concentration, and after 48 and 72 hours, the cell growth was measured using CellTiter-Glo 3D cell viability assay kit (Promega). A549 cells were transfected with […] siRNA using Lipofectamine 2000 (Invitrogen), and siNR4A1 of SEQ ID NO: 1 (5′-GAGCUAUUCCAUGCCUACG-3′) and SEQ ID NO: 2 (5′-GGAUACUGGAUACACCCGU-3′) were mixed and used.

[2] = system: NCI-H460 tumorspheroids; experiment: 3D tumorspheroid growth (CellTiter-Glo 3D); type: cell-based
Description: as §1, §2

[3] = system: A549 cell line; experiment: 2D culture cell growth (CellTiter-Glo); type: cell-based; conditions: Homo sapiens; 2D culture A549, 48 hours; read-out: ED50, cell proliferation
Description: as §1

[4] = system: NCI-H460 cell line; experiment: 2D culture cell growth (CellTiter-Glo); type: cell-based; conditions: Homo sapiens; 2D culture NCI-H460, 48 hours; read-out: ED50, cell proliferation
Description: as §1

[5] = system: p21 protein; experiment: Western blot for p21 protein in 2D-cultured NCI-H460; type: cell-based; conditions: NCI-H460 2D, 48 hours, low concentrations below the ED50
Description: NCI-H460 cell line was cultured in 2D, treated with IHT at the indicated concentration for 48 hours, and then Western blots were performed to measure changes in p21 protein.
(§3) The cells were dissolved in a RIPA (radio immunoprecipitation) buffer containing protease inhibitors, phosphatase inhibitors, PMSF (phenylmethylsulfonyl fluoride), and DTT (dithiothreitol), and protein concentration was quantified with a micro BCA test kit. Equal amounts of protein was added to a polyacrylamide gel containing SDS (Sodium dodecyl sulphate), isolated by electrophoresis, and transferred to a polyvinylidene difluoride (PVDF) membrane. The membrane was blocked with a solution containing 5%-TBST (tris-buffered saline with Tween20) milk, and the primary antibody was exposed at 4 degrees Celsius for 16 hours.
The antibodies used were as follows: β-actin (sc-477778), p53 (sc-126), Bax (sc-526) (Santacruz Biotechnology); cleaved caspase-7 (Asp198) (#9491), cleaved poly (ADP-ribose) polymerase (PARP) (#9541), X chromosome-linked inhibitor of apoptosis (XIAP) (#2045), Survivin (#2808), p21 (#2947), phospho-Akt (#9275), cleaved caspase-9 (#9501), caspase-9 (#9502), caspas-8 (#9746), phospho-Stat3 (#9145) (Cell Signaling Technology). […]

[6] = system: NCI-H460 tumorspheroids; experiment: LIVE/DEAD cell death staining of tumorspheroids; type: cell-based; conditions: NCI-H460 tumorspheroids, 1,3,5 uM IHT, 72 hours
Description: (§4) After the IHT was treated with NCI-H460 and A549 tumorspheroids for 72 hours, the cell death was observed using LIVE/DEAD Viability/Cytotoxicity Kit (Thermo Scientific). Live cells were stained with green fluorescence-labeled calcein-AM, dead cells were stained with red fluorescence-labeled ethidium homodimer-1 (EthD-1), and images were taken at 100× magnification using the Operetta High Content Screening (HCS) System.

[7] = system: A549 tumorspheroids; experiment: LIVE/DEAD cell death staining of tumorspheroids; type: cell-based; conditions: 72 hours
Description: as §2, §4

[8] = system: A549 tumorspheroids; experiment: Apoptosis by Cell Death detection ELISA kit; type: cell-based; conditions: 72 hours
Description: (§5) An experiment was designed to confirm whether cell death induced in 3D tumorspheroids was apoptosis. Induction of apoptosis was examined after treating NCI-H460 tumorspheroids with IHT or treating A549 tumorspheroids with IHT along with siNC or siNR4A1. NCI-H460 and siRNA-treated A549 tumorspheroids were treated with IHT at the indicated concentrations for 72 hours, and then apoptosis was measured using a Cell Death detection ELISA kit. Further, after IHT treatment for 72 hours, single cells were isolated from tumorspheroids, stained with Annexin V and 7-AAD, and analyzed by a flow cytometry. Apoptotic cell population was represented as the ratio of cells in the early apoptotic processes that are annexin V-positive/7-AAD-negative, and terminal apoptotic process positive for both annexin V/7-AAD (FIG. 5). All data are expressed as mean±standard deviation. *p<0.05 indicates a significant difference compared to a control group, and **p<0.01 indicates a significant difference compared to a control group.

[9] = system: NCI-H460 tumorspheroids; experiment: Apoptosis by Cell Death detection ELISA kit; type: cell-based; conditions: 72 hours
Description: as §5

[10] = system: A549 tumorspheroids; experiment: Annexin V / 7-AAD flow cytometry; type: cell-based; conditions: 72 hours
Description: as §5
Further, using the phenomenon that annexin V was exposed to the outside of the cell membrane in the early stage of apoptosis, cells were stained with annexin V, stained with 7-Amino-Actinomycin D (7-AAD) penetrating into dead cells, and analyzed with a flow cytometry, thus showing apoptosis and cell death.

[11] = system: A549 tumorspheroids; experiment: Mitochondrial membrane potential (JC-1, flow cytometry); type: cell-based; conditions: IHT 1 uM and siNR4A1 simultaneously, 48 hours
Description: (§6) In the induction of apoptosis by the intrinsic pathway, a decisive process is the release of cytochrome C inside mitochondria to the outside due to changes in mitochondrial membrane potential. After 48 hours of treatment to measure mitochondrial membrane potential changes, tumorspheroids were isolated into single cells and stained with JC-1, and flow cytometry was used to measure the percentage of mitochondria-damaged cells. The percentage of cells in which JC-lexists as a single entity, meaning a decrease in mitochondrial membrane potential, was indicated. In addition, A549 tumorspheroids transfected with negative control (siNC) or siNR4A1 and NCI-H460 tumorspheroids were treated with IHT for 48 hours, and then subjected to Western blot analysis for apoptosis-related protein changes, and the results are shown in FIG. 6.

[12] = system: NCI-H460 tumorspheroids; experiment: as above; type: cell-based; conditions: 3 uM IHT, 48 hours
Description: as §6

[13] = system: A549 tumorspheroids; experiment: Western blot of apoptosis-related proteins; type: cell-based
Description: as §3
(§7) The antibodies used were as follows: β-actin (sc-477778), p53 (sc-126), Bax (sc-526) (Santacruz Biotechnology); cleaved caspase-7 (Asp198) (#9491), cleaved poly (ADP-ribose) polymerase (PARP) (#9541), X chromosome-linked inhibitor of apoptosis (XIAP) (#2045), Survivin (#2808), p21 (#2947), phospho-Akt (#9275), cleaved caspase-9 (#9501), caspase-9 (#9502), caspas-8 (#9746), phospho-Stat3 (#9145) (Cell Signaling Technology).
(§8) Subsequently, the membrane was washed with TBSP, and then exposed to the secondary antibody conjugated with HRP (horseradish peroxidase, Santacruz Biotechnology) at room temperature for 1 hour, washed, and film-developed using an ECL (enhanced chemiluminescence, Amersham) kit to observe the bands.
as §6

[14] = system: NCI-H460 tumorspheroids; experiment: Western blot of apoptosis-related proteins; type: cell-based
Description: as §3, §7, §8, §6

[15] = system: C. elegans jgIs25 (EGFR T790M-L858R); experiment: Multivulva (Muv) formation in C. elegans with EGFR double mutation; type: in vivo
Excerpt: In non-small cell lung cancer patients with EGFR (epidermal growth factor receptor) exon21 mutation (L858R), the therapeutic effect of EGFR-TKI (tyrosine kinase inhibitor) is excellent. However, tolerance develops quickly, one mechanism of which is because the second mutation (L858R, T790M) occurs in EGFR. C. elegans with EGFR double mutation (L858R, T790M) causes cell proliferation (multivulva formation). It was observed whether cell proliferation could be inhibited upon IHT treatment. This is an in vivo system that can predict the therapeutic effect of lung cancer resistant to EGFR-TKIs, by introducing genetic mutations observed in cells showing drug resistance to the EGFR-TKI (tyrosine kinase inhibitor) used as a therapeutic agent for human lung cancer.
After IHT treatment to C. elegans jgIs25, observations were performed using a differential interference contrast (DIC) microscope. 0.5% DMSO was used as a vehicle control. […] 0.1% DMSO as a control or 5 μM IHT was. Data are expressed as mean±standard error, **P<0.01 and ***P<0.001.

[16] = system: A549 xenograft tumors; experiment: A549 xenograft tumor growth; type: in vivo; conditions: athymic nude mice, intratumoral IHT 20 μg/kg (500 ng) twice a week with siNR4A1 once a week, 4 weeks
Description: Further, A549 cells (5×10^6) were inoculated into the dorsal side of athymic nude mice, and when the tumor size reached 100-150 mm^3, siRNA (50 pmoles) and IHT (500 ng) were intratumorally administered once a week and twice a week, respectively, for 4 weeks. The tumor size was monitored twice a week, and tumor volume was calculated by the following Equation 3. […] V(mm^3)=length×width×width/2 [Equation 3]

[17] = system: A549 tumorspheroids; experiment: Combined treatment of cisplatin and IHT, tumorspheroid cell growth; type: cell-based
Description: A549 tumorspheroids were grown for 3 days, then subjected to the combined treatment of cisplatin and IHT at the indicated concentrations.

[18] = A549 tumorspheroids with inhibition of NR4A1 expression (siNR4A1), IHT 1 uM

COC(=O)[C@@H](O)[C@](O)(CCC(C)C)C(=O)O[C@@H]1C(OC)=C[C@]23CCCN2CCc2cc4c(cc2C13)OCO4 (stereo partly shown) [IHT, isoharringtonine]
growth inhibition of tumorspheroids [1, 18]: rapid growth-inhibitory effect
growth inhibition of tumorspheroids ([1]; A549 tumorspheroids, IHT alone (siNC), 48 and 72 hours): did not have a significant growth-inhibitory effect
EC50 ([1]; Homo sapiens, A549 3D tumorspheroid, 72 hours, ED50 'predicted'): 9.6 ± 1.12 µM
EC50 ([2]; Homo sapiens, 3D tumorspheroid of NCI-H460, 72 hours, read-out: average effective amount (ED50), tumorspheroid growth): 0.143 ± 0.04 µM
growth inhibition of tumorspheroids ([2]; NCI-H460 tumorspheroids, 1,3,5 uM IHT, 48 and 72 hours): effectively induced at all concentrations
EC50 [3]: 0.481 ± 0.05 µM
EC50 [4]: 0.094 ± 0.02 µM
change in p21 protein [5]: increased p21
cell death of tumorspheroids [6]: effectively induced at all concentrations
cell death of tumorspheroids [7, 18]: sharply induced cell death
cell death of tumorspheroids ([7]; A549 tumorspheroids, IHT alone): did not induce cell death
apoptosis (DNA fragments, ELISA) ([8]; IHT alone): apoptosis was not induced
apoptosis (DNA fragments, ELISA) ([8]; simultaneous treatment with siNR4A1, IHT 1 uM): sharply increased apoptosis
apoptosis (DNA fragments, ELISA) [9]: increased from 1 uM in a dose-dependent manner
apoptosis (annexin V/7-AAD) ([10]; IHT alone): did not induce apoptosis
apoptosis (annexin V/7-AAD) ([10]; simultaneous treatment with siNR4A1, IHT 1 μM): sharply increased apoptosis
mitochondrial membrane potential [11]: induced a decrease in mitochondrial membrane potential
mitochondrial membrane potential [12]: changes in mitochondrial membrane potential were induced
cleavage of caspase-9 ([13]; IHT+siNR4A1, 48 hours): induced the cleavage of caspoase-9
Mcl-1 and XIAP protein ([13]; both IHT and siNR4A1, 48 hours): induced a reduction of Mcl-1 and XIAP
phospho-Akt ([13]; both IHT and siNR4A1, 48 hours): reduction of phospho-Akt
Bcl-2 and Mcl-1 protein ([14]; 48 hours): induces the reduction of Bcl-2 and Mcl-1
Survivin and XIAP protein ([14]; 48 hours): induces the decrease of Survivin and XIAP
p53 protein ([14]; 48 hours): induces an increase in p53
phospho-Akt ([14]; 48 hours): reduction of phospho-Akt
cleavage of caspase-9 ([14]; IHT 48 hours): induced the cleavage of caspoase-9
multivulva formation ([15]; C. elegans jgIs25, high concentrations of IHT): multivulva formation was significantly inhibited
multivulva formation ([15]; C. elegans jgIs25, low IHT concentration (5 μM) with sinhr-6 (nhr-6 RNAi)): multivulva formation was significantly inhibited
multivulva formation ([15]; C. elegans jgIs25, low concentration (5 uM) IHT): multivulva formation was not inhibited
xenograft tumor suppression (tumor volume) [16]: tumor suppressive effects were observed
cell growth inhibition ([17]; A549 tumorspheroids, 10 μM IHT in combination with 10 μM cisplatin, 3 days): stronger inhibition of cell growth
cell growth inhibition ([17]; A549 tumorspheroids, 10 μM IHT, 3 days): very effectively inhibited
inhibition at 1 µM ([17]; Homo sapiens, A549, 72 h, read-out: cell growth inhibition): ~48%

N.N.[Cl][Pt][Cl] [cisplatin, reference compound]
inhibition of tumorspheroid growth ([17]; A549 tumorspheroids, 30 μM cisplatin alone, 3 days): significant but minute inhibition of growth
